From patent publication US10703764B2, “Benzopiperazine compositions as BET bromodomain inhibitors” (FORMA Therapeutics, Inc., priority 2013, dated 2020)
pIC50: −log10 of the molar value. Read-outs that look alike come from different tables or passages of the source.

Experiments:
[1] = tested on: MV4-11 cells; assay: Oncology cell growth assay (3-day proliferation, CellTiter-Glo); assay type: cell-based; conditions: Homo sapiens, AML cell line MV4-11, 72 hours, compounds grouped by IC50 range, read-out: MV4-11 IC50 (inhibition of proliferation, gIC50)
Description: The impact of Example compounds on cancer cell proliferation was determined using the acute myelocytic leukemia (AML) cell line MV4-11 (ATCC) in a 3-day proliferation assay. MV4-11 cells were maintained in RPMI 1640 media supplemented with 10% FBS at 37° C. and an atmosphere of 5% CO2. For compound testing, compound dilutions series were prepared in DMSO via a 3-fold serial dilution from 2 mM to 0.001 mM in 384-well white flat bottom plates. The final compound concentrations in the wells were 10, 3.3, 1.1, 0.37, 0.12, 0.041, 0.013 and 0.0045 μM. MV4-11 cells were plated at a density of 3000 cells/well in final volume of 50 μl culture media and incubated for 72 hours. […] Luminescent signal from the CellTiter-Glo assay was read on an EnVision multilabel plate reader (PerkinElmer). Values for the concentration that inhibited cell growth by 50% (gIC50) between the DMSO control and background control (no cells) were determined using IDBS Activity Base software with a four parameter logistic curve fit by the equation y=A+((B−A)/(1+((C/x)^D))), wherein A denotes the bottom plateau of the curve, B denotes the top plateau of the curve, C denotes the x value at the middle of the curve, D denotes the slope factor, x denotes the original known x values, and y denotes the original known y values. Data was fitted using the Levenburg Marquardt algorithm.

[2] = molecular target: T1, BRD4 BD1 (Homo sapiens, UniProt O60885); assay: AlphaScreen binding assay, BRD4 Bromodomain 1
T1 construct: made in house
Outline: (§1)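 Compound dilution series were mixed with His-tagged BRD4 bromodomain and biotinylated tetra-acetylated H4 (1-21) peptide at pH 7.3 (BD1 and peptide at 50 nM, BD2 and peptide at 100 nM). Donor and acceptor beads were then added, and plates were equilibrated at least 1 h before reading. IC50 values were fitted with a four-parameter logistic model.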

[3] = molecular target: T2, BRD4 BD2 (Homo sapiens, UniProt O60885); assay: AlphaScreen binding assay, BRD4 Bromodomain 2
T2 construct: made in house
Outline: as §1

Compound | pIC50 ([1]; MV4-11, 72 h) | pIC50 [2] | pIC50 [3] | pIC50 [1]
CC(=O)N1c2ccc(-c3ccc4c(c3)CCN4S(C)(=O)=O)cc2N(C(=O)c2ccco2)C[C@@H]1C [Example I-299] | 6.30 to 7.00 | 6.00 to 7.00 | 6.30 to 7.30 | –
COCCn1cc(-c2ccc3c(c2)N(C(=O)OC(C)C)C[C@H](C)N3C(=O)C2CC2)cn1 [Example I-314] | 6.30 to 7.00 | 6.00 to 7.00 | 6.30 to 7.30 | –
CC(=O)N1c2ccc(-c3cnn(CCO)c3)cc2N(C(=O)OC(C)C)C[C@@H]1C [Example I-12, (S)-isopropyl 4-acetyl-7-(1-(2-hydroxyethyl)-1H-pyrazol-4-yl)-3-methyl-3,4-dihydroquinoxaline-1(2H)-carboxylate] | 6.30 to 7.00 | > 7.00 | > 7.30 | –
CC(=O)N1c2ccc(-c3cnn(C4CNC4)c3)cc2N(C(=O)Oc2cccnc2)C[C@@H]1C [Example I-1294] | – | 6.00 to 7.00 | 6.30 to 7.30 | < 6.30
COc1cc(Cl)ccc1OC(=O)N1C[C@H](C)N(C(C)=O)c2ccc(-c3cnn(C4CC4)c3)cc21 [Example I-529] | > 7.00 | 6.00 to 7.00 | > 7.30 | –
COC(=O)N1c2ccc(-c3cnn(Cc4ccncc4)c3)cc2N(C(=O)OC(C)C)C[C@@H]1C [Example I-640] | < 6.30 | 6.00 to 7.00 | 6.30 to 7.30 | –
CC(=O)N1c2ccc(-c3ccc(C(=O)NCCN)cc3)cc2N(C(=O)OC(C)C)C[C@@H]1C [Example I-480] | 6.30 to 7.00 | 6.00 to 7.00 | – | –
CC(=O)N1c2ccc(-c3cnn([C@H]4CCCS(=O)(=O)C4)c3)cc2N(C(=O)OC2CCC2)C[C@@H]1C [Example I-174, cyclobutyl (3S)-4-acetyl-7-{1-[(3S)-1,1-dioxo-1λ^6-thian-3-yl]-1H-pyrazol-4-yl}-3-methyl-1,2,3,4-tetrahydroquinoxaline-1-carboxylate] | > 7.00 | > 7.00 | – | –
CC(=O)N1c2ccc(-c3cnn(C4CCS(=O)(=O)CC4)c3)cc2N(C(=O)OC2CCC2)C[C@@H]1C [Example I-154, cyclobutyl (3S)-4-acetyl-7-[1-(1,1-dioxo-1λ^6-thian-4-yl)-1H-pyrazol-4-yl]-3-methyl-1,2,3,4-tetrahydroquinoxaline-1-carboxylate] | > 7.00 | > 7.00 | – | –
CC(C)OC(=O)N1C[C@H](C)N(C(=O)C2CC2)c2ccc(-c3ccc(C(=O)N(C)CC(=O)N(C)C)cc3)cc21 [Example I-560] | 6.30 to 7.00 | 6.00 to 7.00 | – | –
CC(=O)N1c2ccc(-c3cnn([C@@H]4CCCS(=O)(=O)C4)c3)cc2N(C(=O)OC2CCC2)C[C@@H]1C [Example I-173, cyclobutyl (3S)-4-acetyl-7-{1-[(3R)-1,1-dioxo-1λ^6-thian-3-yl]-1H-pyrazol-4-yl}-3-methyl-1,2,3,4-tetrahydroquinoxaline-1-carboxylate] | > 7.00 | 6.00 to 7.00 | – | –
CC(=O)N1c2ccc(-c3cnn(C4CCNC(=O)C4)c3)cc2N(C(=O)OC2CC(F)(F)C2)C[C@@H]1C (stereo partly drawn) [Example I-164, 3,3-difluorocyclobutyl (3S)-4-acetyl-3-methyl-7-[1-(2-oxopiperidin-4-yl)-1H-pyrazol-4-yl]-1,2,3,4-tetrahydroquinoxaline-1-carboxylate] | < 6.30 | 6.00 to 7.00 | – | –
CC(=O)N1c2ccc(-c3cnn(C4CCNC(=O)C4)c3)cc2N(C(=O)OC2CCC2)C[C@@H]1C (single isomer, unassigned) [Example I-176] | 6.30 to 7.00 | 6.00 to 7.00 | – | –
CC(=O)N1c2ccc(-c3cnn(C4CCNC(=O)C4)c3)cc2N(C(=O)OC2CCOCC2)C[C@@H]1C (stereo partly drawn) [Example I-163, oxan-4-yl (3S)-4-acetyl-3-methyl-7-[1-(2-oxopiperidin-4-yl)-1H-pyrazol-4-yl]-1,2,3,4-tetrahydroquinoxaline-1-carboxylate] | 6.30 to 7.00 | 6.00 to 7.00 | – | –
CC(=O)N1c2ccc(-c3cnn(C4CN[C@@H]4C)c3)cc2N(C(=O)OC2CCC2)C[C@@H]1C (stereo partly drawn) [Example I-170, cyclobutyl (3S)-4-acetyl-3-methyl-7-{1-[(2R)-2-methylazetidin-3-yl]-1H-pyrazol-4-yl}-1,2,3,4-tetrahydroquinoxaline-1-carboxylate] | 6.30 to 7.00 | 6.00 to 7.00 | – | –
CC(=O)N1c2ccc(-c3cnn([C@@H]4CCCS(=O)(=O)C4)c3)cc2N(C(=O)OCC2CC2)C[C@@H]1C [Example I-171, cyclopropylmethyl (3S)-4-acetyl-7-{1-[(3R)-1,1-dioxo-1λ^6-thian-3-yl]-1H-pyrazol-4-yl}-3-methyl-1,2,3,4-tetrahydroquinoxaline-1-carboxylate] | < 6.30 | 6.00 to 7.00 | – | –
CC(=O)N1c2ccc(-c3cnn(C4CCNC(=O)C4)c3)cc2N(C(=O)C2CC2)C[C@@H]1C (stereo partly drawn) [Example I-167, 4-{4-[(2S)-1-acetyl-4-cyclopropanecarbonyl-2-methyl-1,2,3,4-tetrahydroquinoxalin-6-yl]-1H-pyrazol-1-yl}piperidin-2-one] | 6.30 to 7.00 | 6.00 to 7.00 | – | –
CC(=O)N1c2ccc(-c3cnn(C4CCNC(=O)C4)c3)cc2N(C(=O)OC(C)C)C[C@@H]1C (stereo partly drawn) [Example I-166, propan-2-yl (3S)-4-acetyl-3-methyl-7-[1-(2-oxopiperidin-4-yl)-1H-pyrazol-4-yl]-1,2,3,4-tetrahydroquinoxaline-1-carboxylate] | 6.30 to 7.00 | 6.00 to 7.00 | – | –
CC(=O)N1c2ccc(-c3cnn(C4CCS(=O)(=O)CC4)c3)cc2N(C(=O)OC(C)C)C[C@@H]1C [Example I-156, propan-2-yl (3S)-4-acetyl-7-[1-(1,1-dioxo-1λ^6-thian-4-yl)-1H-pyrazol-4-yl]-3-methyl-1,2,3,4-tetrahydroquinoxaline-1-carboxylate] | < 6.30 | 6.00 to 7.00 | – | –
CC(=O)N1c2ccc(-c3cnn(C4CCS(=O)(=O)CC4)c3)cc2N(C(=O)OCC2CC2)C[C@@H]1C [Example I-169, cyclopropylmethyl (3S)-4-acetyl-7-[1-(1,1-dioxo-1λ^6-thian-4-yl)-1H-pyrazol-4-yl]-3-methyl-1,2,3,4-tetrahydroquinoxaline-1-carboxylate] | < 6.30 | 6.00 to 7.00 | – | –
CC(=O)N1c2ccc(-c3cnn([C@H]4CCCS(=O)(=O)C4)c3)cc2N(C(=O)OCC2CC2)C[C@@H]1C [Example I-172, cyclopropylmethyl (3S)-4-acetyl-7-{1-[(3S)-1,1-dioxo-1λ^6-thian-3-yl]-1H-pyrazol-4-yl}-3-methyl-1,2,3,4-tetrahydroquinoxaline-1-carboxylate] | < 6.30 | 6.00 to 7.00 | – | –
CC(=O)N1c2ccc(-c3cnn(C4CN[C@H]4C)c3)cc2N(C(=O)OC(C)C)C[C@@H]1C (stereo partly drawn) [Example I-159, propan-2-yl (3S)-4-acetyl-3-methyl-7-{1-[(2S)-2-methylazetidin-3-yl]-1H-pyrazol-4-yl}-1,2,3,4-tetrahydroquinoxaline-1-carboxylate] | > 7.00 | 6.00 to 7.00 | – | –
CC(=O)N1c2ccc(-c3cnn(C4CS(=O)(=O)C4)c3)cc2N(C(=O)OC2CC(F)(F)C2)C[C@@H]1C [Example I-1, 3,3-difluorocyclobutyl (3S)-4-acetyl-7-[1-(1,1-dioxo-1λ^6-thietan-3-yl)-1H-pyrazol-4-yl]-3-methyl-1,2,3,4-tetrahydroquinoxaline-1-carboxylate] | 6.30 to 7.00 | 6.00 to 7.00 | – | –
CC(=O)N1c2ccc(-c3cnn(C4CCNC(=O)C4)c3)cc2N(C(=O)OC2CCC(F)(F)CC2)C[C@@H]1C (stereo partly drawn) [Example I-165, 4,4-difluorocyclohexyl (3S)-4-acetyl-3-methyl-7-[1-(2-oxopiperidin-4-yl)-1H-pyrazol-4-yl]-1,2,3,4-tetrahydroquinoxaline-1-carboxylate] | 6.30 to 7.00 | 6.00 to 7.00 | – | –
CC(=O)N1c2ccc(-c3cnn(C4CN[C@H]4C)c3)cc2N(C(=O)OC2CCC2)C[C@@H]1C (stereo partly drawn) [Example I-178, cyclobutyl (3S)-4-acetyl-3-methyl-7-{1-[(2S)-2-methylazetidin-3-yl]-1H-pyrazol-4-yl}-1,2,3,4-tetrahydroquinoxaline-1-carboxylate] | 6.30 to 7.00 | 6.00 to 7.00 | – | –
CC(=O)N1c2ccc(-c3cnn(C4CN[C@H]4C)c3)cc2N(C(=O)OC2CC(F)(F)C2)C[C@@H]1C (mixture of isomers) [Example I-168, 3,3-difluorocyclobutyl (3S)-4-acetyl-3-methyl-7-{1-[(2S)-2-methylazetidin-3-yl]-1H-pyrazol-4-yl}-1,2,3,4-tetrahydroquinoxaline-1-carboxylate] | < 6.30 | 6.00 to 7.00 | – | –
CC(=O)N1c2ccc(-c3cnn(C4CCNC(=O)C4)c3)cc2N(C(=O)OC2CCC2)C[C@@H]1C (stereo partly drawn) [Example I-175, cyclobutyl (3S)-4-acetyl-3-methyl-7-[1-(2-oxopiperidin-4-yl)-1H-pyrazol-4-yl]-1,2,3,4-tetrahydroquinoxaline-1-carboxylate] | > 7.00 | > 7.00 | – | –
